From US20250188033A1, “INHIBITOR OF REPLICATION PROTEIN A1 OF TRYPANOSOMA BRUCEI AND METHOD OF USE THEREOF” (Research Foundation of the City University of New York, published 2025)
Like-named read-outs stand apart in the source and are kept apart here.

Columns and labels:
[1] = system: Trypanosoma brucei; experiment: ALAMARBLUE cell viability / growth assay of T. brucei cells; format: cell-based
Procedure, shortened: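 Parasites seeded at 1×10^3 cells/ml in triplicate, exposed to compound for 72 h (0.0075% DMSO vehicle). AlamarBlue added for 4-6 h, fluorescence read at 560/590 nm; % viable cells calculated from RFU normalized to DMSO control, EC50 from 0.5-50 μM series.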

[2] = system: HEK293 cells; experiment: ALAMARBLUE cell viability assay of human cells (HEK293); format: cell-based
Experimental: (§1) Human cell lines, HeLa and HEK293 were maintained in Dulbecco's modified MEM (D-MEM, GIBCO) supplemented with 10% fetal bovine serum (GIBCO) at 37° C. with 5% CO2.
(§2) To determine the inhibitory effect of JC-229 on human cells, HeLa and HEK293 cells were suspended in 180 μl D-MEM with 10% FBS and plated at a density of 2×10^4 cells/ml in triplicate. Cells were adhered overnight, and the medium was replaced, and cells were then incubated for 72 hours with increasing concentrations of JC-229 (0.5 μM to 50 μM) and cell viability was determined using the ALAMARBLUE® dye as described above. Percent viability was plotted using GraphPad Prism software. […] The EC50 values were estimated using the concentration of JC-229 that cause 50% reduction of cell viability (inhibitor vs. normalized response, variable slope).

[3] = system: HeLa cells; experiment: ALAMARBLUE cell viability assay of human cells (HeLa); format: cell-based
Experimental: as §1, §2

[4] = system: T. brucei cells; experiment: Cell-cycle analysis by PI staining and flow cytometry; format: cell-based, Trypanosoma brucei; conditions: 10 μM
Experimental: (§3) Without wishing to be bound to any particular theory, if JC-229 indeed binds and inhibits the functions of TbRPA1, as predicted from the structural model, JC-229-treated trypanosome cells should show similar phenotypes to TbRPA1-depleted cells without affecting TbRPA1 protein levels. Wild-type T. brucei cells was treated with 10 μM JC-229 for 48 hours and the cell-cycle profile and efficiency of DNA synthesis was monitored. TbRPA1, γH2A, VSG3, and Tubulin protein levels were also monitored (FIG. 3A, FIG. 3B, FIG. 3C and FIG. 3D).
About 10 million cells were collected after tetracycline induction or after JC-229 treatment. Cells were fixed with ice-cold 70% ethanol and incubated with 50 μg/ml PI (Sigma-Aldrich) and 200 μg/ml RNase A (Sigma-Aldrich) in 1×PBS (Corning) at 37° C. for 30 min in the dark. Samples were analyzed by flow cytometry (FACSVia, BD Biosciences) and FLOWJO®.

[5] = system: T. brucei cells; experiment: Immunoblotting of TbRPA1, γH2A and VSG3 protein levels; format: cell-based, Trypanosoma brucei; conditions: 10 μM; for fold increase in the levels of γH2A: relative to untreated, normalized to tubulin
Experimental: as §3
Cells were harvested at indicated time points and suspended in Laemmli buffer (Bio-Rad) at 0.25 million cells per μl. Denatured proteins from whole cells were separated on a 4-20% gradient SDS-PAGE gel (BioRAD) and transferred to nitrocellulose membrane (GE Healthcare). The membranes were probed with polyclonal antibodies against TbRPA1 (a gift from Bibo Li laboratory) or γH2A (generated by ABclonal for this study), or monoclonal mouse antibodies against VSG3 (Antibody and Bioresource Core facility, MSKCC) or tubulin (Sigma) in 1× PBS with 0.1% Tween 20 and 1% milk (BioRAD) at 4° C. overnight. The membranes were then incubated with secondary antibodies conjugated with Horseradish Peroxidase (HRP) (GE healthcare) for the detection of corresponding proteins using chemiluminescence (Hyglo from Denville Scientific, ChemiDoc Imaging System from BioRAD).

[6] = target: T1, TbRPA1 DBD-AB F64A (Trypanosoma brucei, UniProt Q384B5 Q384B5:1-257, F64A); experiment: MST; no ssDNA-binding activity; conditions: tags: 6xHis, pET28a, E. coli; label: 5' Cy5
[7] = target: T2, TbRPA1 DBD-AB W188A (Trypanosoma brucei, UniProt Q384B5 Q384B5:1-257, W188A); experiment: MST; no ssDNA-binding activity; conditions: tags: 6xHis, pET28a, E. coli; label: 5' Cy5
[8] = target: T3, TbRPA complex (RPA1/RPA2/RPA3) (Trypanosoma brucei, UniProt Q384B5;Q57ZN9;Q38DK0 Q384B5:1-463,Q57ZN9:1-255,Q38DK0:1-127); experiment: MST; 10 mM MgCl2, 10 mM NaCl, Tris pH 7.5, 22 C; JC-229 inhibits binding, IC50 24.5 nM; conditions: tags: 6xHis-thrombin site on RPA1 (pSR8), E. coli; one complex per dT32 stated; label: 5' Cy5
T3 sequence 1: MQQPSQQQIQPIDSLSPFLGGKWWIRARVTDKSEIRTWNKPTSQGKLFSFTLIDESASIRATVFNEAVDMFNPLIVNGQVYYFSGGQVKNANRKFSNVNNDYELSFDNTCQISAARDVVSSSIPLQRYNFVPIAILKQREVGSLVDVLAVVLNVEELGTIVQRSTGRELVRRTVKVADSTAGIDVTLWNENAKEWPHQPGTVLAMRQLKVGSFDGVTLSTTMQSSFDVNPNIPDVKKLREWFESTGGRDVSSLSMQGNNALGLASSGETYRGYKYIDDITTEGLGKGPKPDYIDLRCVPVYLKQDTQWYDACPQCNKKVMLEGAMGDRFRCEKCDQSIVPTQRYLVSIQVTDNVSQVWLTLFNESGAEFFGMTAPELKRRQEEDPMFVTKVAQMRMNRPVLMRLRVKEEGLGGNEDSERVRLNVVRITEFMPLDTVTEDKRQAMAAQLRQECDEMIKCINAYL
T3 sequence 2: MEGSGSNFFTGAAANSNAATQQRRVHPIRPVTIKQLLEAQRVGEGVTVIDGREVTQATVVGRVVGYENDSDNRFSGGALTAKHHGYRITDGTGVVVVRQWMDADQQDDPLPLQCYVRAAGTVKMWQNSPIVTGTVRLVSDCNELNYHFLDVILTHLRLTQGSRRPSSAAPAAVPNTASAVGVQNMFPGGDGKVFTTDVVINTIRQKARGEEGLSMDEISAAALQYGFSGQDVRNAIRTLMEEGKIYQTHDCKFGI
T3 sequence 3: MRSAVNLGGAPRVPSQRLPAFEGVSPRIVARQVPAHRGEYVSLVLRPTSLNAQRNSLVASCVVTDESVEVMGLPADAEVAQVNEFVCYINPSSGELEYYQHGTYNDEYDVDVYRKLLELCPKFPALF
Experimental: FIG. 5C are graphs showing recombinant TbRPA complex was 2-fold serially diluted from 400 nM concentration and these were incubated with 10 nM 5′Cy5-dT₃₂. Binding was analyzed by MST (left). Serial dilutions of JC-229 were pre-incubated with 25 nM TbRPA complex and then with 10 nM 5′Cy5-dT₃₂. Inhibition of binding was analyzed by MST (right).
(§4) MST experiments were performed on Monolith NT.115 instrument with red filter (Nanotemper Technologies) in MST binding buffer (20 mM Tris, pH 7.5, 10 mM NaCl, 10 mM MgCl₂, 2 mM DTT, 10% glycerol and 0.1 mg/ml BSA) using premium-coated capillaries (Nanotemper Technologies). MST experiments were performed with 40% LED power and 40% MST power at 22° C.
(§5) ssDNA-binding assay: The 5′Cy5 labeled-oligo dT32 was purchased from IDT. Increasing concentrations of purified protein (from 0.06 nM to 2,000 nM for DBD-AB proteins; from 0.02 nM to 800 nM for RPA complexes) were incubated with equal volume (10 μl) of 5′Cy5-labeld oligo dT₃₂ (10 nM final concentration) in MST binding buffer for 15 min at room temperature. Samples were then loaded into MST capillaries.

[9] = target: HsRPA1 DBD-AB (Homo sapiens, UniProt P27694 P27694:181-422); experiment: MST; 10 mM MgCl2, 10 mM NaCl, Tris pH 7.5, 22 C; not inhibited by JC-229; conditions: tags: 6xHis, pET28a (pSR15), E. coli; label: 5' Cy5
Sequence of HsRPA1 DBD-AB (P27694 181-422, one chain of several): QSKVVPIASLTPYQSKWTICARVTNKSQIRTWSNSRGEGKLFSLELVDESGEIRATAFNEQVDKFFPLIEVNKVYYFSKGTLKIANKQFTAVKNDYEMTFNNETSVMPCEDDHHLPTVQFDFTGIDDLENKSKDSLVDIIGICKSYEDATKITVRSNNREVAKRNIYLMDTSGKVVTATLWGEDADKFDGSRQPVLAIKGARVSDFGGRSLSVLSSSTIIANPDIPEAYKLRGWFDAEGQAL
Experimental: as §4, §5

[10] = target: T4, LmexRPA1 DBD-AB (Leishmania mexicana, UniProt E9B001 E9B001:1-258); experiment: as above; conditions: tags: N-terminal 6xHis, pET28a (pSR16), E. coli; label: 5' Cy5
T4 sequence: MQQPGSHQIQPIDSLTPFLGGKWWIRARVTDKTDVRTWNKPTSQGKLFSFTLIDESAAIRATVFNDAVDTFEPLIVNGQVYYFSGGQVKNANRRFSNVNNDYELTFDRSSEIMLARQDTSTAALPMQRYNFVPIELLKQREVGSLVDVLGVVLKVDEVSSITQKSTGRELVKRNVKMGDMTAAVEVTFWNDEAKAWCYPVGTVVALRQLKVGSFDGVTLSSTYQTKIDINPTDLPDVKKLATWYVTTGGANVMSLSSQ
Experimental: as §4, §5

[11] = target: T5, TcRPA1 DBD-AB (Trypanosoma cruzi, UniProt Q4DXC9 Q4DXC9:1-256); experiment: MST; p171-172 quotes 12.6 nM for the same WT protein; 10 mM MgCl2, 22 C; not inhibited by JC-229; conditions: tags: N-terminal 6xHis, pET28a (pSR13), E. coli; label: 5' Cy5
T5 sequence: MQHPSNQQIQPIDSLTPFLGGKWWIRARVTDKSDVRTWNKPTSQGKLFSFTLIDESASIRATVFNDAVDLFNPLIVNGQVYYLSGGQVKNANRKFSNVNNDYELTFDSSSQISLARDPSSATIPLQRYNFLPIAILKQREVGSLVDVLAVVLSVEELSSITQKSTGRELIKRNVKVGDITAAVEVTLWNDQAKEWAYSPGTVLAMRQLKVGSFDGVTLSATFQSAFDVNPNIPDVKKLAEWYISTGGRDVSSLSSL
Experimental: as §4, §5

[12] = target: TcRPA1 DBD-AB T105S (Trypanosoma cruzi, UniProt Q4DXC9 Q4DXC9:1-256, T105S); experiment: MST; 10 mM MgCl2, 22 C; JC-229 IC50 159x10^3 nM; conditions: tags: N-terminal 6xHis, pET28a, E. coli; label: 5' Cy5
[13] = target: T1, TbRPA1 DBD-AB F64A; experiment: EMSA; no ssDNA-binding activity; conditions: tags: 6xHis, pET28a, E. coli; label: 5' IRDye800
[14] = target: T2, TbRPA1 DBD-AB W188A; experiment: EMSA; no ssDNA-binding activity; conditions: tags: 6xHis, pET28a, E. coli; label: 5' IRDye800
[15] = target: TbRPA1 DBD-AB S105T (Trypanosoma brucei, UniProt Q384B5 Q384B5:1-257, S105T); experiment: EMSA; 10 mM MgCl2, RT; not inhibited by JC-229; conditions: tags: 6xHis, pET28a, E. coli; label: 5' IRDye800

Cc1ccc(C(=O)Nc2ccc(Cl)c(Cl)c2)cc1S(=O)(=O)Nc1ccc(Cl)c(Cl)c1 [JC-229, N-(3,4-dichlorophenyl)-3-(N-(3,4-dichlorophenyl)sulfamoyl)-4-methylbenzamide]
EC50 ([1]; Trypanosoma brucei, 72 h, read-out: EC50 (T. brucei viability), T. brucei, 0.5 to 50 μM, 72 hours): 6600 nM
inhibition at 2 µM ([1]; Trypanosoma brucei, T. brucei, 2 μM, 72 hours, normalized to DMSO control): 24%
inhibition at 5 µM ([1]; Trypanosoma brucei, T. brucei, 5 μM, 72 hours, normalized to DMSO control): 76%
inhibition at 10 µM ([1]; Trypanosoma brucei, T. brucei, 10 μM, 72 hours, normalized to DMSO control): 100%
EC50 ([1]; read-out: EC50 (T. brucei viability), T. brucei, 0.5 to 50 μM, 72 hours): 6500 nM
EC50 ([2]; HEK293, 0.5 to 50 μM, 72 hours, estimated, curve did not reach bottom plateau): 18400 nM
inhibition at 6.5 µM ([2]; HEK293, at 6.5 μM (EC50 to T. brucei)): < 20%
inhibition at 50 µM ([2]; HEK293, at 50 μM, the maximum concentration): < 100%
EC50 ([3]; 0.5 to 50 μM, 72 hours, estimated, curve did not reach bottom plateau): 32100 nM
inhibition at 6.5 µM ([3]; at 6.5 μM (EC50 to T. brucei)): < 20%
inhibition at 50 µM ([3]; at 50 μM, the maximum concentration): < 100%
sub-G1 population ([4]; 32-hour time point): ~45%
cells that lost the bulk of their DNA ([4]; by 48 hours): ~97%
fold increase in the levels of γH2A ([5]; 16 hours): approximately 5 fold
fold increase in VSG3 protein levels ([5]; 24 hours): ~3 fold
fold increase in the levels of γH2A ([5]; 24 hours): ~7 fold

TTTTTTTTTTTTTTTTTTTTTTTTTTTTTTTT (ssDNA) [5'Cy5-dT32]
binding result [6]: no binding
binding result [7]: no binding
Kd [8]: 13.2 nM
Kd [9]: 48 nM
Kd [10]: 12.6 nM
Kd [11]: 13.2 nM
Kd [12]: 52.4 nM

TTTTTTTTTTTTTTTTTTTTTTTTTTTTTTTT (ssDNA) [5'IRDye800-dT32]
binding result [13]: no binding
binding result [14]: no binding
binding result [15]: binds
